Like-named read-outs stand apart in the source and are kept apart here.

These results are taken from patent US12233073B2, “Skin care formulations and skin cancer treatment” (Regents of the University of Minnesota, priority 2017, dated 2025).

For series [1], the system named is SSL-induced skin tumors in SKH-1 hairless mice. The procedure:
The effectiveness of different candidate compounds in preventing sUV-induced cancer was evaluated. SKH-1 hairless mice (Charles River, Burlington, Massachusetts) were treated with formulations including one or more candidate compounds and exposed to SSL (solar simulated light). Female mice aged 5-6 weeks at the beginning of the study were used. The mice were exposed to SSL three times a week for 15 weeks from the beginning of the study. At week 1, the SSL dose included 37 kJ/m^2 UVA and 1.8 kJ/m^2 UVB three times per week. […] At week 6, the dose included 60 kJ/m^2 UVA and 2.9 kJ/m^2 UVB and this dose was maintained until week 15 at which time SSL exposure was stopped. Each mouse received a topical application (on the dorsal skin surface posterior to the base of the neck and anterior to the base of the tail) of one or more candidate compounds in a base cream one hour before SSL exposure. 15 weeks onwards, the mice were no longer exposed to SSL but the topical application of cream with sunscreen compounds was continued until 30 weeks. Control mice received topical application of cream with sunscreen compounds but no SSL.
Tumors were counted by sight. The dimensions of each tumor were measured using a digital caliper. Tumor volume (mm^3) was determined as (length×width^2)×0.52, where the length and width were measured in mm. […] Average or total tumor volumes were compared between vehicle (cream)-treated mice exposed to SSL and compound in cream-treated mice exposed to SSL.

Series [2] concerns skin of SKH-1 hairless mice. Briefly: H&E staining of skin of mice treated with anti-sUV agents. In kind it is in vivo, mouse. The following applies: solar UV-exposed groups G13-G24. An excerpt:
FIG. 40 is a photograph comparing H&E (hematoxylin and eosin) stained tissue sample of mice exposed to solar ultraviolet and treated with anti-sUV agents and mice unexposed to solar ultraviolet. H&E staining can show skin damage (see TABLE 5 for group identification). […] None of the compounds in the absence of solar UV caused any damage and none had any adverse effect on skin thickness. G11 and G12 are the positive controls, being groups treated with solar UV without or with vehicle (cream).

For another series, the system named is Ki-67. Briefly: Ki-67 immunohistological staining of skin of mice treated with anti-sUV agents. The format is in vivo, mouse. The following applies: solar UV-exposed groups. An excerpt:
FIG. 41 is a photograph comparing Ki-67 immunohistological-stained tissue samples of mice exposed to solar ultraviolet and treated with anti-sUV agents and mice unexposed to solar ultraviolet.

The conditions of series [3]: following one hour of exposure to sunlight; cited from earlier work.
Where [4] appears, read: SSL-exposed, compound in cream, percent per TABLE 5, 15 mice.
[5] abbreviates: no SSL exposure, compound in cream, percent per TABLE 5.
Setting [6] is: SSL-exposed, compound in cream, percent per TABLE 5.
[7] abbreviates: female, SKH-1 hairless, mouse, in vivo, 30 weeks.

As for `[O]=[Zn]` [Zinc oxide], in series [1] (setting [4]), the “% Mice with tumor” value is recorded as 6.7%, the “% Mortality” value was 0/0%, the “Average volume of tumors” value is reported as 0.8 mm^3 and the “Avg. no. of tumors” value turned out to be 0.13. Moreover, in series [1] (setting [4]), the “Number of dead mice” value is given as 0/0, the “Total no. of tumors” value amounted to 2 and the “Total volume of tumors” value stood at 11.2 mm^3. In addition, in series [1] (setting [5]), the “% Mortality/Number of dead mice” value is on record as 0, the “Total/Average volume of tumors” value is listed as 0 and the “Total/Avg. no. of tumors” value was determined as 0. For the same compound, in series [1] (no SSL exposure, compound in cream, percent per TABLE 5, 30 weeks), the “% Mice with tumor” value amounted to 0%. In addition, the “H&E staining: epidermal thickening and skin damage” value (from here on “H&E staining”) in series [2] is listed as “most protected”. The “Ki-67 staining: abnormal cell proliferation” value (from here on “Ki-67 staining”) in the series with Ki-67 is on record as “least amount of abnormal proliferation”.
On to `COc1ccc(C(=O)CC(=O)c2ccc(C(C)(C)C)cc2)cc1` [Avobenzone], for which the “% Effective Protection (% reduction in tumor volume vs SSL with cream only)” value in series [1] (setting [6]) is 72.8%. Moreover, in series [1] (setting [4]), the “% Mice with tumor” value is 93.3%, the “% Mortality” value is 6.7%, the “Average volume of tumors” value is 46.1 mm^3 and the “Avg. no. of tumors” value is given as 3.7. Moreover, in series [1] (setting [4]), the “Number of dead mice” value was 1, the “Total no. of tumors” value is recorded as 55 and the “Total volume of tumors” value is on record as 691.5 mm^3. The “% Mice with tumor” value in series [1] (setting [7]) was 0%. In series [1] (setting [5]), the “% Mortality/Number of dead mice” value worked out at 0, the “Total/Average volume of tumors” value is recorded as 0 and the “Total/Avg. no. of tumors” value came to 0. Further, the “H&E staining” value in series [2] was “epidermal thickening and skin damage”. Moreover, the “Ki-67 staining” value with Ki-67 is reported as “extensive abnormal proliferation”. Also, the “change in UV absorbance” value in series [3] is on record as “approximately 36%”.
`CCCCC(CC)COC(=O)c1ccccc1O` (stereo not shown) [Octisalate]: the “% Effective Protection (% reduction in tumor volume vs SSL with cream only)” value in series [1] (setting [6]) is reported as 70.1%. For the same compound, in series [1] (setting [4]), the “% Mice with tumor” value amounted to 100%, the “% Mortality” value is 66.7%, the “Average volume of tumors” value stood at 50.6 mm^3 and the “Avg. no. of tumors” value stood at 2.6. Further, in series [1] (setting [4]), the “Number of dead mice” value turned out to be 10, the “Total no. of tumors” value is on record as 39 and the “Total volume of tumors” value is recorded as 758.4 mm^3. Besides, the “% Mice with tumor” value in series [1] (setting [7]) is on record as 0%. In series [1] (setting [5]), the “% Mortality/Number of dead mice” value was found to be 0, the “Total/Average volume of tumors” value is 0 and the “Total/Avg. no. of tumors” value was 0. The “H&E staining” value in series [2] was “epidermal thickening and skin damage”.
In the case of `CC1CC(OC(=O)c2ccccc2O)CC(C)(C)C1` (stereo not shown) [Homosalate], the “% Effective Protection (% reduction in tumor volume vs SSL with cream only)” value in series [1] (setting [6]) came to 83.6%. Besides, in series [1] (setting [4]), the “% Mice with tumor” value is recorded as 80%, the “% Mortality” value is 6.7%, the “Average volume of tumors” value came to 27.7 mm^3 and the “Avg. no. of tumors” value came out at 2.6. Moreover, in series [1] (setting [4]), the “Number of dead mice” value is reported as 1, the “Total no. of tumors” value is 39 and the “Total volume of tumors” value was found to be 415.7 mm^3. Besides, in series [1] (setting [7]), the “% Mice with tumor” value turned out to be 0%. Further, in series [1] (setting [5]), the “% Mortality/Number of dead mice” value is listed as 0, the “Total/Average volume of tumors” value turned out to be 0 and the “Total/Avg. no. of tumors” value was 0. Also, the “H&E staining” value in series [2] was “intense damage”. Also, the “Ki-67 staining” value in the series with Ki-67 was “extensive abnormal proliferation”.
